Source: patent publication US20220204509A1, “PYRIMIDO FIVE-MEMBERED HETEROCYCLIC COMPOUND AND USE THEREOF AS MUTANT IDH2 INHIBITOR” (EPITAS BIOSCIENCES (SHANGHAI) CO., LTD., priority 2019, published 2022)
Changes are numbered by the printed parent chain.

What was measured:
[1] = biological target: T1, IDH2/WT (Homo sapiens, UniProt P48735); test: Determination of the selectivity of compounds to wild-type IDH2 (IDH2/WT); format: biochemical; conditions: Inhibitory activity on IDH2/WT; pre-incubated at 25° C. for 16 hours
T1 construct: made in house; host or cells: E. coli
T1 sequence (P48735 40-452): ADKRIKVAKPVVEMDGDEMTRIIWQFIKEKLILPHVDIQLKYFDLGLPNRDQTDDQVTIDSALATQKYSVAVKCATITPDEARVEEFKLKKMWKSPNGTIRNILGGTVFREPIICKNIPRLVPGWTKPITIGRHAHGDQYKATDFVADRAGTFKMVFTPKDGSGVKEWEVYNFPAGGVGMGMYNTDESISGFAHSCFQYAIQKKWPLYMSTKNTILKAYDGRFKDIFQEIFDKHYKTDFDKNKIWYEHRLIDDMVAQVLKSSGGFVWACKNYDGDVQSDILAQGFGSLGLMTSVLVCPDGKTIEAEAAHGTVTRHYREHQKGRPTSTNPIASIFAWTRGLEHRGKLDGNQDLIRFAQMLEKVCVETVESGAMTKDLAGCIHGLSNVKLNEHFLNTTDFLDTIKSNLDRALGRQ
Protocol: The compound was incubated with IDH2/WT and NADP, and then the reaction was initiated by adding isocitrate. After a certain time of reaction under linear conditions, lipoamide dehydrogenase and resazurin were added to detect the amount of fluorescent substances. In this experiment, NADP was reduced to NADPH. The latter reduced resazurin to highly fluorescent resorufin under the action of lipoamide dehydrogenase. The production of resorufin was detected to quantify the amount of cofactor NADPH generated after a specific reaction time, so as to calculate the compound's inhibitory effect on IDH2/WT.
Specifically, in a 96-well plate, in a total reaction volume of 50 μL, a mixture of 0.6 nM IDH2/WT, serially diluted inhibitors, and 50 μM NADP in a reaction buffer containing Tris-HCl 20 mM (pH 7.5), 150 mM NaCl, 10 mM MgCl2, 10% Glycerol, 0.03% BSA, and 2.5 mM β-mercaptoethanol, was pre-incubated at 25° C. for 16 hours. Isocitrate was added to 50 μM and the reaction was carried out at 25° C. for 30 minutes. Then 25 μL of a mixed solution (lipoamide dehydrogenase 36 μg/mL, resazurin 30 μM) prepared with the above reaction buffer was added to convert resazurin to resorufin to measure the NADPH produced. After 10 minutes of incubation at 25° C., the fluorescence value was measured by Tecan INFINITE F FLEX under Ex544/Em590. The enzyme activity was measured at 10 concentrations for each compound, and multiple background holes without enzyme and full enzyme activity holes without compound were set up in the reaction. The concentration of dimethyl sulfoxide in the system was less than or equal to 2%. The value of IC50 was obtained by the formula: Y=100/(1+10^((Log IC50−X)*HillSlope)) using XLFit5 software (IDBS Software). In the method, the multi-well plate was purchased from Thermo Fisher Scientific, NADP, α-KG, lipoamide dehydrogenase, and resazurin were purchased from Shenggong Bioengineering Co., Ltd., and IDH2/WT was obtained by purification after E. coli overexpression.

[2] = biological target: T2, IDH2/R140Q (Homo sapiens, UniProt P48735, R140Q); test: Inhibition of mutant IDH2 activity at the cell level (extracellular 2-HG, U87MG overexpressing IDH2/R140Q); format: cell-based; conditions: U87MG overexpressing IDH2/R140Q; 2-HG in medium after 24 hours of culturing with compound; read-out: IC50
T2 sequence (P48735 40-452 R140Q): T1 sequence (P48735 40-452) with R101Q
Protocol: 2-hydroxyglutarate dehydrogenase (2HGDH) can reduce NAD+ to NADH in the presence of 2-HG. The latter can be quantitatively detected by diaphorase and its substrate Resazurin.
The glioma cells U87MG overexpressing IDH2/R140Q mutation were cultured in 1% sodium pyruvate high-sugar MEM, 10% FBS, and placed in a CO2 incubator (37° C., 5% CO2, 95% air) for cultivation.
The cells were digested with trypsin and seeded in a 96-well plate at a density of 1×10^4 with a medium of 200 μL and cultured in a 37° C. incubator overnight. The next day, the test compound was added to a final concentration of 0.1% for DMSO. […] The protein and other components in the medium that may interfere with the results were filtered, and the follow-up method was used to detect the content of 2-HG. 50 uL CellTiter-Glo (purchased from Promega) was added to the 96-well plate with the remaining 100 μL of medium to detect cell survival;
Extracellular 2-HG detecting system:
(1) 50 μL reaction system: reaction buffer (50 mM Tris pH7.5, 100 mM NaCl, 20 mM MgCl2, 0.05% BSA), in which the final concentration of NAD+ was 40 μM, the final concentration of 2HGDH was 20 nM, and the test sample was added to 5 μL of medium; the reaction solution was mixed and centrifuged, and the reaction was carried out for 1 hour at 25° C. in the dark;
Preparation of 2-HG standard curve: a 2-HG stock solution was diluted to 20 μM with reaction buffer, and a 2-fold gradient diluting was performed for a total of 6 points. Afterwards, the above-mentioned 2-HG was measured according to the extracellular 2-HG detecting system, and a standard curve was calculated and drawn.
Calculation of extracellular 2-HG content:
The fluorescence value obtained in the extracellular 2-HG detecting system was calculated using the 2-HG standard curve to calculate the content of 2-HG in the medium, and DMSO was used as a negative control to calculate the compound's inhibition against IDH2/R140Q mutation producing 2-HG activity.

[3] = biological target: T2, IDH2/R140Q; test: Determination of the inhibitory activity of the compounds on IDH2/R140Q (NADPH reduction, resazurin/lipoamide dehydrogenase detection); format: biochemical; set-up: purchased Abcam ab198153; conditions: IDH2/R140Q inhibitory activity; pre-incubated at 25° C. for 16 hours; read-out: IC50
Protocol: In this example, the inhibitory activity of a compound on IDH2/R140Q was determined by measuring the reduction of the cofactor NADPH. The compound was incubated with IDH2/R140Q and NADPH, and then the reaction was initiated by adding α-KG. After a certain time of reaction under linear conditions, lipoamide dehydrogenase and the corresponding substrate resazurin were added for detection. Lipoamide dehydrogenase terminated the IDH2/R140Q reaction bγ subtracting the available cofactor NADPH. It oxidized NADPH to NADP, and reduced resazurin to highly fluorescent resorufin. The production of resorufin was detected to quantify the amount of cofactor NADPH remaining after a specific reaction time.
Then 25 μL of a stop mixed solution (lipoamide dehydrogenase 36 μg/mL, resazurin 30 μM) prepared with the above reaction buffer was added to convert resazurin to resorufin to measure the remaining NADPH. After 10 minutes of incubation at 25° C., the fluorescence value was measured by Tecan […] […] The enzyme activity was measured at 10 concentrations for each compound, and multiple background holes without enzyme and full enzyme activity holes without compound were set up in the reaction. The concentration of dimethyl sulfoxide in the system was less than or equal to 2%. […] The multi-well plate in this example was purchased from Thermo Fisher Scientific, NADPH, α-KG, lipoamide dehydrogenase, and resazurin were purchased from Shenggong Bioengineering Co., Ltd., and IDH2/R140Q was purchased from Abcam (ab198153).

| Structure (SMILES) | IC50 [1] [nM] | IC50 [2] [nM] | IC50 [3] [nM] |
| --- | --- | --- | --- |
| Cc1cc2c(Nc3cccc(F)c3)nc(-c3ccccc3)nc2[nH]1 [Compound 31, N-(3-fluorophenyl)-6-methyl-2-phenyl-7H-pyrrolo[2,3-d]pyrimidin-4-amine] | – | 1000 to 10000 | 1000 to 10000 |
| Cc1cc2c(NC3CCCCC3)nc(-c3ccccc3)nc2[nH]1 [Compound 37, N-cyclohexyl-6-methyl-2-phenyl-7H-pyrrolo[2,3-d]pyrimidin-4-amine] | – | 1000 to 10000 | 1000 to 10000 |
| Cc1cc2c(NC3CC3)nc(-c3ccc(F)cc3)nc2[nH]1 [Compound 38, N-cyclopropyl-2-(4-fluorophenyl)-6-methyl-7H-pyrrolo[2,3-d]pyrimidin-4-amine] | – | 1000 to 10000 | 1000 to 10000 |
| Cc1cc2c(-c3ccccc3)nc(NC(C)C)nc2[nH]1 [Compound 40, N-isopropyl-6-methyl-4-phenyl-7H-pyrrolo[2,3-d]pyrimidin-2-amine] | – | > 10000 | > 10000 |
| Cc1cc2c(Nc3cccc(Cl)c3)nc(-c3ccccc3)nc2[nH]1 [Compound 41, N-(3-chlorophenyl)-6-methyl-2-phenyl-7H-pyrrolo[2,3-d]pyrimidin-4-amine] | – | 1000 to 10000 | 1000 to 10000 |
| CCOC(=O)Cc1cc2c(Nc3ccccc3)nc(-c3ccccc3)nc2[nH]1 [Compound 44] | – | 1000 to 10000 | 1000 to 10000 |
| Cc1ccc(-c2nc(NC3CC3)c3cc(C)[nH]c3n2)cc1 [Compound 45, N-cyclopropyl-6-methyl-2-(p-tolyl)-7H-pyrrolo[2,3-d]pyrimidin-4-amine] | – | 1000 to 10000 | 1000 to 10000 |
| CC(C)Nc1nc(-c2ccccc2)nc2[nH]c(-c3ccccc3)cc12 [Compound 46, N-isopropyl 2,6-diphenyl-7H-pyrrolo[2,3-d]pyrimidin-4-amine] | – | > 10000 | > 10000 |
| Cc1cc2c(NC3CC3)nc(-c3ccc(O)cc3)nc2[nH]1 [Compound 47, 4-(4-(cyclopropylamino)-6-methyl-7H-pyrrolo[2,3-d]pyrimidin-2-yl)phenol] | – | 100 to 1000 | 100 to 1000 |
| Cc1cc2c(Nc3ccccc3)nc(-c3ccccc3F)nc2[nH]1 [Compound 50, 2-(2-fluorophenyl)-6-methyl-N-phenyl-7H-pyrrolo[2,3-d]pyrimidin-4-amine] | – | 100 to 1000 | 100 to 1000 |

Further lines, results first:

| IC50 [1] [nM] | IC50 [2] [nM] | IC50 [3] [nM] | Structure (SMILES) |
| --- | --- | --- | --- |
| > 5000 | 100 to 1000 | 100 to 1000 | Cc1cc2c(NC3CC3)nc(-c3ccccc3)nc2[nH]1 [Compound 23, N-cyclopropyl-6-methyl-2-phenyl-7H-pyrrolo[2,3-d]pyrimidin-4-amine] |
| > 5000 | 100 to 1000 | 100 to 1000 | Cc1cc2c(NC(C)C)nc(-c3ccccc3F)nc2[nH]1 [Compound 25, 2-(2-fluorophenyl)-N-isopropyl-6-methyl-7H-pyrrolo[2,3-d]pyrimidin-4-amine] |
| > 5000 | < 100 | 100 to 1000 | Cc1cc2c(NC3CC3)nc(-c3ccccc3F)nc2[nH]1 [Compound 28, N-cyclopropyl-2-(2-fluorophenyl)-6-methyl-7H-pyrrolo[2,3-d]pyrimidin-4-amine] |
| – | 100 to 1000 | 1000 to 10000 | Cc1cc2c(NC3CC3)nc(-c3cccc(F)c3)nc2[nH]1 [Compound 34, N-cyclopropyl-2-(3-fluorophenyl)-6-methyl-7H-pyrrolo[2,3-d]pyrimidin-4-amine] |
| – | 100 to 1000 | 100 to 1000 | Cc1cc2c(NCC(C)C)nc(-c3ccccc3)nc2[nH]1 [Compound 39, N-isobutyl-6-methyl-2-phenyl-7H-pyrrolo[2,3-d]pyrimidin-4-amine] |
| – | 100 to 1000 | 100 to 1000 | Cc1cccc(-c2nc(NC3CC3)c3cc(C)[nH]c3n2)c1 [Compound 42, N-cyclopropyl-6-methyl-2-(m-tolyl)-7H-pyrrolo[2,3-d]pyrimidin-4-amine] |
| – | 100 to 1000 | 1000 to 10000 | Cc1cc2c(NC3CC3)nc(-c3ccccc3C)nc2[nH]1 [Compound 43, N-cyclopropyl-6-methyl-2-(o-tolyl)-7H-pyrrolo[2,3-d]pyrimidin-4-amine] |
| – | < 100 | < 100 | Cc1cc2c(NC3CCC3)nc(-c3ccccc3F)nc2[nH]1 [Compound 48, N-cyclobutyl-2-(2-fluorophenyl)-6-methyl-7H-pyrrolo[2,3-d]pyrimidin-4-amine] |
| – | < 100 | < 100 | CC(C)Nc1nc(-c2ccccc2)nc2[nH]c(C(F)(F)F)cc12 [Compound 49, N-isopropyl-2-phenyl-6-(trifluoromethyl)-7H-pyrrolo[2,3-d]pyrimidin-4-amine] |
| – | < 100 | < 100 | Cc1cc2c(NC3CCCC3)nc(-c3ccccc3F)nc2[nH]1 [Compound 51, N-cyclopentyl-2-(2-fluorophenyl)-6-methyl-7H-pyrrolo[2,3-d]pyrimidin-4-amine] |
